The first data set has as its system mice.
Experiment: not given
To be noted: mouse, in vivo, 1440 min. As for the experimental part:
2. Determination of Minimum Toxic Dose
Maximum doses of 300 mg/kg of the test substance were administered orally to male mice weighing 20-25 g. The animals were observed carefully for 3 hours for toxicity symptoms. In addition, all symptoms and deaths were recorded over a period of 24 hours after administration. Associated symptoms were also observed and recorded. If death or severe toxic symptoms were observed, additional mice were administered increasingly lower doses. The lowest dose which produced death or severe toxic symptoms is given in the following Table B as the minimum toxic dose.
`Cc1ccnc(N2CCN(CCCCC3Sc4ccccc4NC3=O)CC2)c1` (stereo not shown) [Example 1, 2-{4-[4-(4-methylpyridin-2-yl)-piperazin-1-yl]butyl}-2H-1,4-benzothiazine-3(4H)-one]: the Minimum toxic dose stood at 300 mg/kg.

In turn, `Cc1ccnc(N2CCN(CCCC3Sc4ccccc4NC3=O)CC2)c1` (stereo not shown) [Example 8] registered a Minimum toxic dose of 100 mg/kg. With `Cc1ccnc(N2CCN(CCCC3Oc4ccccc4NC3=O)CC2)c1` (stereo not shown) [Example 9], the Minimum toxic dose stood at 300 mg/kg. `Cc1ccnc(N2CCN(CCCC3Sc4ccccc4NC3=S)CC2)c1` (stereo not shown) [Example 11] came in with a Minimum toxic dose of over 300 mg/kg.

Another data set concerns PAF-induced aggregation of rabbit blood platelets. The experiment in a line: Anti-PAF activity in vitro, PAF-induced platelet aggregation. The format is cell-based, rabbit (New Zealand hybrids). To be noted: Oryctolagus cuniculus, test substance 10^-5 mole/l, pH 7.4. The source says: 4. Determination of Anti-PAF Activity In Vitro
PAF (=Platelet Activating Factor) is a phospholipid mediator which has many effects. Activation of platelet aggregation induces protracted broncho-contraction and hyper-reactivity of the air paths.
In this test the effect of the test substances on platelet aggregation induced by adding PAF to a suspension of platelets obtained from rabbit blood is investigated using the method described by Mikashima et al. (Jap. J. Pharmacol. 44 (1987) 387-391).
A suspension of platelets obtained from rabbit blood containing 4×10^9 platelets/ml in a modified Tyrode buffer solution (=Tyrode solution with 1.3 mM/l CaCl2 and 2.5 g/l gelatine added) adjusted to pH 7.4 was used. Tyrode solution is an aqueous solution containing 136.9 mmoles NaCl, 2.68 mmoles KCl, 2.31 mmoles CaCl2, 1.0 mmole MgCl2, 11.9 mmoles NaHCO3, 1.45 mmoles NaH2 PO4 and 5.55 mmoles glucose per liter. The platelets were obtained from 10 ml blood samples from each of three rabbits (New Zealand hybrids, body weight 3-4 kg). For this the blood samples were treated with ethylenediamine tetraacetic acid and washed according to the method of Artley et al. (Brit. J. Hematol. 19 (1970), 7-17). A platelet-rich plasma was then initially separated by centrifuging (20 minutes at 400×g). The blood platelets were separated from the plasma by recentrifuging for 15 minutes at 1,400×g. The platelets remaining as sediment after centrifuging were resuspended in a Tyrode buffer solution (but without calcium). 0.4 mmole of lysine acetylsalicylate was then added, and after 15 minutes the platelets were sedimented again. The sediment was resuspended in the aforementioned modified Tyrode buffer solution, and the number of platelets in the resulting suspension was adjusted to the desired content.
A 40×10^-9 molar PAF solution was used as a reagent. This solution was made from a 1.8×10^-3 molar stock solution in chloroform. For this purpose a 10 μl sample of the stock solution was evaporated to dryness and redissolved in 180 μl of the modified Tyrode solution to which 0.25% of lipid-free bovine serum albumin had been added. From this 10^-5 molar working solutions were then prepared and stored frozen. Samples of these solutions were appropriately diluted for the tests.
To carry out the test 50 μl of the platelet suspension and 10 μl of a 40×10^-5 molar solution of the compound being investigated were added with stirring (1,000 rpm) to 330 μl of the modified Tyrode buffer solution in an aggregation tube provided with a small magnetic stirrer. This corresponds to a final test substance concentration of 10^-5 mole/l. After 90 seconds preincubation time, 10 μl of the PAF preparation were added. The aggregation occurring in the aggregation tubes was measured over 4-5 minutes with the aid of a computerized aggregometer.
The aggregation which occurred in test tubes containing only platelet suspension was evaluated as 0%, whereas the aggregation which occurred in test tubes containing platelet suspension and PAF preparation was evaluated as 100%. The aggregation which still occurred during the inhibition of the PAF induced platelet aggregation due to the addition of the test substances was measured, and the resulting aggregation inhibition was calculated therefrom in %.
One may read the inhibition as how much of the control response was suppressed. High values mean a response far below the control, low ones a response near the control. As to `Cc1ccnc(N2CCN(CCCC3Sc4ccccc4NC3=O)CC2)c1` (stereo not shown) [Example 8], the inhibition at 10 µM was 48%. On the same count and under the same terms, the result for `Cc1ccnc(N2CCN(CCCC3Oc4ccccc4NC3=O)CC2)c1` (stereo not shown) [Example 9] reads 51%.

`Cc1ccnc(N2CCN(CCCC3Sc4ccccc4NC3=S)CC2)c1` (stereo not shown) [Example 11] returned an inhibition at 10 µM of 96%.

(Values after US5332733A, “Heterocyclically substituted piperazinoakylbenzoxazine and piperazinoalkylbenzothiazine compounds, processes for preparing them, and medicaments containing them” (Kali-Chemie Pharma GmbH, priority 1990, dated 1994).)
